Test results from patent US6525001B1, “Substituted pyrimidine and pyridine herbicides” (Mid-American Commercialization Corporation, priority 1997, dated 2003).

Legend:
Format in all cases: in vivo
Set-up in all cases: key: 0 is no effect; 10 is complete control
[1] = tested on: blackgrass (Alopecurus myosuroides); test: Test B pre-/postemergence
Method in brief: (§1)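 Response scores run from 0, meaning no effect, to 10, meaning complete control, assigned by eye relative to controls twelve to sixteen days after spraying. Treatment was both preemergence on planted seed and postemergence on plants at the 1- to 4-leaf stage.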

[2] = tested on: cocklebur (Xanthium strumarium); test: Test B pre-/postemergence
Method in brief: as §1

corn (Zea mays) = test: Test B pre-/postemergence
Method in brief: as §1

[3] = tested on: crabgrass (Digitaria sanguinalis); test: Test B pre-/postemergence
Method in brief: as §1

[4] = tested on: pigweed (Amaranthus retroflexus); test: Test B pre-/postemergence
Method in brief: as §1

[5] = tested on: purple nutsedge (Cyperus rotundus); test: Test B pre-/postemergence
Method in brief: as §1

rape (Brassica napus) = test: Test B pre-/postemergence
Method in brief: as §1

soybean (Glycine max) = test: Test B pre-/postemergence
Method in brief: as §1

[6] = tested on: sugar beet (Beta vulgaris); test: Test B pre-/postemergence
Method in brief: as §1

[7] = tested on: velvetleaf (Abutilon theophrasti); test: Test B pre-/postemergence
Method in brief: as §1

[8] = tested on: wheat (Triticum aestivum); test: Test B pre-/postemergence
Method in brief: as §1

[9] = tested on: bamyardgrass (Echinochloa crus-galli); test: Test B flood test
Method in brief: (§2)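 Each value is a visual injury score relative to controls, with 10 meaning complete control and 0 no effect. Evaluation took place twelve to sixteen days after the 2-leaf-stage plants were treated and kept in the greenhouse.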

[10] = tested on: duck salad (Heteranthera limosa); test: Test B flood test
Method in brief: as §2

rice (Oryza sativa) = test: Test B flood test
Method in brief: as §2

[11] = tested on: smallflower flatsedge (Cyperus difformis); test: Test B flood test
Method in brief: as §2

[12] = Rate 62 g/ha, Postemergence (flood test)
[13] = Rate 125 g/ha, Postemergence, flood test
[14] = Rate 250 g/ha, Postemergence (flood test species)
[15] = Rate 500 g/ha, Postemergence (flood test species)

Compound: Cc1cnc(-c2ccc(C(F)(F)F)cc2)nc1Cn1cc(I)cn1 [Compound 12]
- Plant response rating, Blackgrass ([1]; Rate 62 g/ha, Postemergence): 2
- Blackgrass plant response rating ([1]; Rate 62 g/ha, Preemergence): 1
- Plant response rating, Blackgrass ([1]; Rate 125 g/ha, Postemergence): 3
- Blackgrass plant response rating ([1]; Rate 125 g/ha, Preemergence): 4
- Plant response rating, Blackgrass ([1]; Rate 250 g/ha, Postemergence): 4
- Plant response rating, Blackgrass ([1]; Rate 250 g/ha, Preemergence): 6
- Plant response rating, Blackgrass ([1]; Rate 500 g/ha, Postemergence): 4
- Plant response rating, Blackgrass ([1]; Rate 500 g/ha, Preemergence): 6
- Cocklebur plant response rating ([2]; Rate 62 g/ha, Preemergence): 0
- Plant response rating, Cocklebur ([2]; Rate 125 g/ha, Postemergence): 8
- Plant response rating, Cocklebur ([2]; Rate 250 g/ha, Postemergence): 8
- Plant response rating, Cocklebur ([2]; Rate 250 g/ha, Preemergence): 2
- Plant response rating, Cocklebur ([2]; Rate 500 g/ha, Postemergence): 8
- Plant response rating, Cocklebur ([2]; Rate 500 g/ha, Preemergence): 3
- Plant response rating, Corn (corn (Zea mays); Rate 62 g/ha, Postemergence): 2
- Corn plant response rating (corn (Zea mays); Rate 62 g/ha, Preemergence): 0
- Plant response rating, Corn (corn (Zea mays); Rate 125 g/ha, Postemergence): 2
- Corn plant response rating (corn (Zea mays); Rate 125 g/ha, Preemergence): 0
- Plant response rating, Corn (corn (Zea mays); Rate 250 g/ha, Postemergence): 3
- Plant response rating, Corn (corn (Zea mays); Rate 250 g/ha, Preemergence): 0
- Plant response rating, Corn (corn (Zea mays); Rate 500 g/ha, Postemergence): 3
- Plant response rating, Corn (corn (Zea mays); Rate 500 g/ha, Preemergence): 2
- Plant response rating, Crabgrass ([3]; Rate 62 g/ha, Postemergence): 2
- Crabgrass plant response rating ([3]; Rate 62 g/ha, Preemergence): 4
- Plant response rating, Crabgrass ([3]; Rate 125 g/ha, Postemergence): 3
- Crabgrass plant response rating ([3]; Rate 125 g/ha, Preemergence): 4
- Plant response rating, Crabgrass ([3]; Rate 250 g/ha, Postemergence): 3
- Plant response rating, Crabgrass ([3]; Rate 250 g/ha, Preemergence): 8
- Plant response rating, Crabgrass ([3]; Rate 500 g/ha, Postemergence): 3
- Plant response rating, Crabgrass ([3]; Rate 500 g/ha, Preemergence): 10
- Plant response rating, Redroot pigweed ([4]; Rate 62 g/ha, Postemergence): 9
- Redroot pigweed plant response rating ([4]; Rate 62 g/ha, Preemergence): 7
- Plant response rating, Redroot pigweed ([4]; Rate 125 g/ha, Postemergence): 9
- Redroot pigweed plant response rating ([4]; Rate 125 g/ha, Preemergence): 9
- Plant response rating, Redroot pigweed ([4]; Rate 250 g/ha, Postemergence): 9
- Plant response rating, Redroot pigweed ([4]; Rate 250 g/ha, Preemergence): 9
- Plant response rating, Redroot pigweed ([4]; Rate 500 g/ha, Postemergence): 9
- Plant response rating, Redroot pigweed ([4]; Rate 500 g/ha, Preemergence): 9
- Plant response rating, Nutsedge ([5]; Rate 62 g/ha, Postemergence): 0
- Nutsedge plant response rating ([5]; Rate 62 g/ha, Preemergence): 0
- Plant response rating, Nutsedge ([5]; Rate 125 g/ha, Postemergence): 0
- Nutsedge plant response rating ([5]; Rate 125 g/ha, Preemergence): 0
- Plant response rating, Nutsedge ([5]; Rate 250 g/ha, Postemergence): 0
- Plant response rating, Nutsedge ([5]; Rate 250 g/ha, Preemergence): 0
- Plant response rating, Nutsedge ([5]; Rate 500 g/ha, Postemergence): 0
- Plant response rating, Nutsedge ([5]; Rate 500 g/ha, Preemergence): 0
- Plant response rating, Rape (rape (Brassica napus); Rate 62 g/ha, Postemergence): 7
- Rape plant response rating (rape (Brassica napus); Rate 62 g/ha, Preemergence): 0
- Plant response rating, Rape (rape (Brassica napus); Rate 125 g/ha, Postemergence): 9
- Rape plant response rating (rape (Brassica napus); Rate 125 g/ha, Preemergence): 5
- Plant response rating, Rape (rape (Brassica napus); Rate 250 g/ha, Postemergence): 9
- Plant response rating, Rape (rape (Brassica napus); Rate 250 g/ha, Preemergence): 6
- Plant response rating, Rape (rape (Brassica napus); Rate 500 g/ha, Postemergence): 9
- Plant response rating, Rape (rape (Brassica napus); Rate 500 g/ha, Preemergence): 6
- Plant response rating, Soybean (soybean (Glycine max); Rate 62 g/ha, Postemergence): 3
- Soybean plant response rating (soybean (Glycine max); Rate 62 g/ha, Preemergence): 0
- Plant response rating, Soybean (soybean (Glycine max); Rate 125 g/ha, Postemergence): 5
- Soybean plant response rating (soybean (Glycine max); Rate 125 g/ha, Preemergence): 2
- Plant response rating, Soybean (soybean (Glycine max); Rate 250 g/ha, Postemergence): 5
- Plant response rating, Soybean (soybean (Glycine max); Rate 250 g/ha, Preemergence): 3
- Plant response rating, Soybean (soybean (Glycine max); Rate 500 g/ha, Postemergence): 5
- Plant response rating, Soybean (soybean (Glycine max); Rate 500 g/ha, Preemergence): 3
- Plant response rating, Sugarbeets ([6]; Rate 62 g/ha, Postemergence): 7
- Sugarbeets plant response rating ([6]; Rate 62 g/ha, Preemergence): 6
- Plant response rating, Sugarbeets ([6]; Rate 125 g/ha, Postemergence): 8
- Sugarbeets plant response rating ([6]; Rate 125 g/ha, Preemergence): 8
- Plant response rating, Sugarbeets ([6]; Rate 250 g/ha, Postemergence): 8
- Plant response rating, Sugarbeets ([6]; Rate 250 g/ha, Preemergence): 10
- Plant response rating, Sugarbeets ([6]; Rate 500 g/ha, Postemergence): 9
- Plant response rating, Sugarbeets ([6]; Rate 500 g/ha, Preemergence): 10
- Plant response rating, Velvetleaf ([7]; Rate 62 g/ha, Postemergence): 7
- Velvetleaf plant response rating ([7]; Rate 62 g/ha, Preemergence): 3
- Plant response rating, Velvetleaf ([7]; Rate 125 g/ha, Postemergence): 7
- Velvetleaf plant response rating ([7]; Rate 125 g/ha, Preemergence): 4
- Plant response rating, Velvetleaf ([7]; Rate 250 g/ha, Postemergence): 8
- Plant response rating, Velvetleaf ([7]; Rate 250 g/ha, Preemergence): 4
- Plant response rating, Velvetleaf ([7]; Rate 500 g/ha, Postemergence): 8
- Plant response rating, Velvetleaf ([7]; Rate 500 g/ha, Preemergence): 4
- Plant response rating, Wheat ([8]; Rate 62 g/ha, Postemergence): 3
- Wheat plant response rating ([8]; Rate 62 g/ha, Preemergence): 0
- Plant response rating, Wheat ([8]; Rate 125 g/ha, Postemergence): 3
- Wheat plant response rating ([8]; Rate 125 g/ha, Preemergence): 0
- Plant response rating, Wheat ([8]; Rate 250 g/ha, Postemergence): 3
- Plant response rating, Wheat ([8]; Rate 250 g/ha, Preemergence): 0
- Plant response rating, Wheat ([8]; Rate 500 g/ha, Postemergence): 4
- Plant response rating, Wheat ([8]; Rate 500 g/ha, Preemergence): 0
- Plant response rating, Barnyardgrass [9, 12]: 2
- Plant response rating, Barnyardgrass [9, 13]: 2
- Plant response rating, Barnyardgrass [9, 14]: 3
- Plant response rating, Barnyardgrass [9, 15]: 3
- Plant response rating, Ducksalad [10, 12]: 0
- Plant response rating, Ducksalad [10, 13]: 1
- Plant response rating, Ducksalad [10, 14]: 1
- Plant response rating, Ducksalad [10, 15]: 2
- Plant response rating, Rice (rice (Oryza sativa); [12]): 1
- Plant response rating, Rice (rice (Oryza sativa); [13]): 2
- Plant response rating, Rice (rice (Oryza sativa); [14]): 3
- Plant response rating, Rice (rice (Oryza sativa); [15]): 3
- Plant response rating, S. Flatsedge [11, 12]: 4
- Plant response rating, S. Flatsedge [11, 13]: 6
- Plant response rating, S. Flatsedge [11, 14]: 8
- Plant response rating, S. Flatsedge [11, 15]: 8
